Laboratory results as given in paper PMC8120209, “Longitudinal evaluation of a novel BChE PET tracer as an early in vivo biomarker in the brain of a mouse model for Alzheimer disease” (Theranostics, 2021).

How the values were obtained:
Set-up in all cases: Eurofins SafetyScreen44 radioligand displacement, inhibition of control specific binding
5-HT2B(h) = target: T1, 5-HT2B(h) (Homo sapiens, UniProt P41595); test: biochemical; conditions: reference compound
T1 construct: gene HTR2B

N neuronal α7 (h) [1] = target: T2, N neuronal α7 (h) (Homo sapiens, UniProt P36544); conditions: reference compound; binder
T2 construct: gene CHRNA7
T2 sequence (P36544 whole entry): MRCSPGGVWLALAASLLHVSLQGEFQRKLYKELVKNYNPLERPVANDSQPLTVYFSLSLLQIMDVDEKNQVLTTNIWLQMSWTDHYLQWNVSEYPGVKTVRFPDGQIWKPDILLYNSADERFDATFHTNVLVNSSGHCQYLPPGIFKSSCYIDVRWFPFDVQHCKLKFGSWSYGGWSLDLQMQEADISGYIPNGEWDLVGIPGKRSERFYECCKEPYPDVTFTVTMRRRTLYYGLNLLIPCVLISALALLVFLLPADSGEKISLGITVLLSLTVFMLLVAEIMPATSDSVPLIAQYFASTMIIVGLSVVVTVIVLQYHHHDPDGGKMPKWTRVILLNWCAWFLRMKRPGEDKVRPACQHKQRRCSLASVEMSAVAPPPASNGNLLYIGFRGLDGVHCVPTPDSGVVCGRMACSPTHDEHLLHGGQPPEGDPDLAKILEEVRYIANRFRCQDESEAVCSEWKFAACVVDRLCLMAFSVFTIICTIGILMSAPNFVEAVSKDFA

N neuronal α7 (h) [2] = target: T2, N neuronal α7 (h); conditions: reference compound; binder; remark: listed apart in the source
M5(h) = target: T3, M5(h) (Homo sapiens, UniProt P08912); test: biochemical; conditions: reference compound
T3 construct: gene CHRM5
T3 sequence (P08912 whole entry): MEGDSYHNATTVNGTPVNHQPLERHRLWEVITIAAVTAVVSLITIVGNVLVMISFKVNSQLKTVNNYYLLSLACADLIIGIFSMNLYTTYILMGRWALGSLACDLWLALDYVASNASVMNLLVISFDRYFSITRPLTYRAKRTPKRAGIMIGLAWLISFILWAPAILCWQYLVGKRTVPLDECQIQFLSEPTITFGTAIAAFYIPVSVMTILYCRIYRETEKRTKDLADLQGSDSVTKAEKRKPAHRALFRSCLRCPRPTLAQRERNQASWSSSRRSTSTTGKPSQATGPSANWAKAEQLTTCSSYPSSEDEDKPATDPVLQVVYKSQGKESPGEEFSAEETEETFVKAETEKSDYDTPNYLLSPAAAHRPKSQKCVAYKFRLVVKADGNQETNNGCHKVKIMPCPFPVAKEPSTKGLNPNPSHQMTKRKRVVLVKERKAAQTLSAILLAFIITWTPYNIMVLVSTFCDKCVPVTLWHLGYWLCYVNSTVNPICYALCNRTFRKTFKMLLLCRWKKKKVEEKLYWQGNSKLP

adrenergic receptor α1A [3] = target: T4, adrenergic receptor α1A (Homo sapiens, UniProt P35348); conditions: reference compound; binder
T4 construct: gene ADRA1A
T4 sequence (P35348 1-466): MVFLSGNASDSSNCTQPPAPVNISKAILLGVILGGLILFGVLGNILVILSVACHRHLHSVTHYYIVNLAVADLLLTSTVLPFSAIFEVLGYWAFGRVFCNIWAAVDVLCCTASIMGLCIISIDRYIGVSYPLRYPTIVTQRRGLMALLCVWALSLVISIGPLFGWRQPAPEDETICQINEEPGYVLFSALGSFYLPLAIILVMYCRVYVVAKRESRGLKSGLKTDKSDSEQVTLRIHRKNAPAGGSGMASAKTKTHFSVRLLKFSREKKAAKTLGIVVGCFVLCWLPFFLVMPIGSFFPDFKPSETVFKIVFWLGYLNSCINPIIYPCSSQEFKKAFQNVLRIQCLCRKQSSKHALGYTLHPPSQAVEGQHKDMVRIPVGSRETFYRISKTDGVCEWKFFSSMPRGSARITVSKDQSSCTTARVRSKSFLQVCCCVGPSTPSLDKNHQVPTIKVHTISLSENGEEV

adrenergic receptor α1A [4] = target: T4, adrenergic receptor α1A; conditions: reference compound; binder; remark: listed apart in the source

T1 sequence (P41595 whole entry): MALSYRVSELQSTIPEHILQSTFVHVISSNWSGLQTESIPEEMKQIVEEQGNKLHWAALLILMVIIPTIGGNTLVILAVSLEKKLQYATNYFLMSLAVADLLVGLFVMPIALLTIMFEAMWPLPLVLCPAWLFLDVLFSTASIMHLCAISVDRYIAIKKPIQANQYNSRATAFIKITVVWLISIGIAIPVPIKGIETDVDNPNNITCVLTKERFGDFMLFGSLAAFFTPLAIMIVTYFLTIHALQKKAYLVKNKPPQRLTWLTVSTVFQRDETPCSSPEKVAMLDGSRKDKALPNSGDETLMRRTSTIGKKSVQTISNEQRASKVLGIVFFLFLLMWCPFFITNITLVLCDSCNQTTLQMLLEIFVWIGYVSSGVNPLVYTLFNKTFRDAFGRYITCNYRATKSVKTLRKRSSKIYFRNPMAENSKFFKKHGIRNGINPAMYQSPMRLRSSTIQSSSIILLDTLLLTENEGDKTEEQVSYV

**Q.** `COc1cc(CC(C)N)c(OC)cc1I` (racemic) [(±)DOI] was tested. Which Ki (5-HT2B(h)) did it give?
**A.** 1.8 nM

**Q.** For `Clc1ccc(C2CC3CCC2N3)cn1` (racemic) [(±)epibatidine], which Ki (N neuronal α7 (h) [1]) is on record?
**A.** 75 nM

**Q.** And the IC50 (N neuronal α7 (h) [2])?
**A.** 86 nM

**Q.** How did the Ki (M5(h)) turn out when `C[N+]1(C)CCC(OC(=O)C(c2ccccc2)c2ccccc2)CC1` [4-DAMP] was run?
**A.** 0.5 nM

**Q.** For `COc1cccc(OC)c1OCCNCC1COc2ccccc2O1` (stereo not drawn) [WB 4101], which IC50 (adrenergic receptor α1A [3]) is on record?
**A.** 0.61 nM

**Q.** What about the Ki (adrenergic receptor α1A [4]) of the same molecule?
**A.** 0.3 nM
